Columns and labels:
NCI-H-460 cells = experiment: Cell cytotoxicity assay, NCI-H-460 cells; type: cell-based; conditions: Homo sapiens, NCI-H460, 72 hours, percent cytotoxicity against DMSO control; for cytotoxicity at 1 µM: 1 μM compound, read-out: Cell toxicity NCI-H-460 cells 1 μM; for cytotoxicity at 10 µM: 10 μM compound, read-out: Cell toxicity NCI-H-460 cells 10 μM
Text: (§1) The following human derived non-small cell lung cancer cell lines were used to test the efficiency of the compounds to cause cell death and assess the anti-cancer properties of said compounds: 1. A549 cells: adenocarcinomic human alveolar basal epithelial cells; these cells are used as models for the study of lung cancer and the development of drug therapies against it • 2. NCI-H-460 cells are also human lung cancer cells, and • 3. NCI-H-522 cells are also human lung cancer cells.
(§2) 500 cells/well/30 μL were seeded in a 384 well cell culture plate. Incubated over night at 37° C., 5% CO2 in cell culture incubator. 10 μL of 4× compound was added to the plates, and incubated for 72 hours at 37° C., 5% CO2 in cell culture incubator. Assay DMSO control were included for 0% cytotoxicity control. Assay was terminated by addition of 10 μL of the reagent CTG 2.0 detection reagent #G9242. Plates were incubated for 20 minute incubation at room temperature with shaking Plate were read in Envision. Ultrasensitive luminescence and data was analyzed and percent cytotoxicity of compounds was determined against DMSO control.
(§3) All the compounds, A1-A116, were tested for cell toxicity using said non-small cell lung cancer cell lines using the above described method.

NCI-H-522 = experiment: CellTiter Glo assay, NCI-H-522; type: cell-based; conditions: Homo sapiens, NCI-H522; 72 hours, 10 point DRC, 100 μM top; read-out: Cytotoxicity IC50 NCI-H-522
Text: as §1
(§4) Cells were cultured and maintained in F12K+10% FBS+1× anti-anti media and RPMI+10% FBS+1× anti-anti media. Cells were trypsinised and expanded to ensure that cells are not over-confluent and are in log growth phase. On day 0, 500 cells/well were seeded in 30 μl media using cell culture treated white flat bottom 384 well plate, centrifuged at 40×g for 10 seconds and incubated overnight in […], 5% CO2 incubator. On day 1, 4× concentration of compounds were prepared in complete media, 10 μl was added to cells, centrifuged at 40×g for 10 seconds and incubated 72 hours in 37° C., 5% CO2 incubator. Compounds tested: 100 μM top, 3 fold dilution and 10 point DRC in triplicate. Final DMSO concentration was maintained at 0.5% for all compound. No compound/DMSO was used as a control. On day 4 (72 hours post treatment) plates were brought to room temperature for 10 min 10 μl of CellTiter Glo reagent was added to each well and placed the plates on an orbital shaker for 10 minutes at room temperature. Luminescence signal was read on the Envision plate reader using the ultra-sensitive luminescence protocol. Data was plotted and analyzed using the below formula: DMSO control treated cells RLU considered as 100% cell viability.
(§5) Table 7 provides the IC50 values for cell toxicity of most efficient derivatives of Formula A.

NCI-H-460 = experiment: CellTiter Glo assay, NCI-H-460; type: cell-based; conditions: Homo sapiens, NCI-H460; 72 hours, 10 point DRC, 100 μM top; read-out: Cytotoxicity IC50 NCI-H-460
Text: as §1, §4, §5

NCI-H-522 cells = experiment: Cell cytotoxicity assay, NCI-H-522 cells; type: cell-based; conditions: Homo sapiens, NCI-H522, 72 hours, percent cytotoxicity against DMSO control; for cytotoxicity at 1 µM: 1 μM compound, read-out: Cell toxicity NCI-H-522 cells 1 μM; for cytotoxicity at 10 µM: 10 μM compound, read-out: Cell toxicity NCI-H-522 cells 10 μM
Text: as §1, §2, §3

[1] = tested on: Non-small cell lung cancer cell lines; experiment: Cell toxicity assay, overall statement; type: cell-based; conditions: summary in words of Table 6
Text: as §1, §2, §3
These selected derivatives of Formula A were further tested to confirm their efficiency as anti-cancer compounds.

[2] = tested on: Non-small cell lung cancer cell lines; experiment: Cell Titer Glo assay, overall statement; type: cell-based, human; conditions: summary in words
Text: as §1, §4, §5

A549 cells = experiment: Cell cytotoxicity assay, A549 cells; type: cell-based; conditions: Homo sapiens, 72 hours, percent cytotoxicity against DMSO control; for cytotoxicity at 1 µM: 1 μM compound, read-out: Cell toxicity A549 cells 1 μM; for cytotoxicity at 10 µM: 10 μM compound, read-out: Cell toxicity A549 cells 10 μM
Text: as §1, §2, §3

A549 = experiment: CellTiter Glo assay, A549; type: cell-based; conditions: Homo sapiens, 72 hours, 10 point DRC, 100 μM top, read-out: Cytotoxicity IC50 A549
Text: as §1, §4, §5

Compound | cytotoxicity at 1 µM (NCI-H-460 cells) | cytotoxicity at 10 µM (NCI-H-460 cells) | IC50 (NCI-H-522) | IC50 (NCI-H-460) | cytotoxicity at 1 µM (NCI-H-522 cells) | cytotoxicity at 10 µM (NCI-H-522 cells) | activity against Non-small cell lung cancer (cell toxicity) [1] | efficiency in cell toxicity against Non-small cell lung cancer cell lines [2] | cytotoxicity at 1 µM (A549 cells) | cytotoxicity at 10 µM (A549 cells) | IC50 (A549)
COc1cc(Nc2nc(N3CCN(c4ccnc5cc(Cl)ccc45)CC3)cc(C(F)(F)F)n2)cc(OC)c1 [Compound A1, 4-(4-(7-chloroquinolin-4-yl)piperazin-1-yl)-N-(3,5-dimethoxyphenyl)-6-(trifluoromethyl)pyrimidin-2-amine] | 19% | 82% | 3040 nM | 2410 nM | 21% | 50% | active | best efficiency | 42% | 97% | 1590 nM
COc1cc(Nc2nc(N3CCN(c4ccnc5ccccc45)CC3)cc(C(F)(F)F)n2)cc(OC)c1 [Compound A43, N-(3,5-dimethoxyphenyl)-4-(4-(quinolin-4-yl)piperazin-1-yl)-6-(trifluoromethyl)pyrimidin-2-amine] | 8% | 65% | 1230 nM | 943 nM | 48% | 73% | active | best efficiency | 88% | 99% | 665 nM
COc1cncc(Nc2nc(N3CCN(c4ccnc5cc(Cl)ccc45)CC3)cc(C(F)(F)F)n2)c1 [Compound A7, 4-(4-(7-chloroquinolin-4-yl)piperazin-1-yl)-N-(5-methoxypyridin-3-yl)-6-(trifluoromethyl)pyrimidin-2-amine] | -1% | 25% | 2560 nM | 3420 nM | 18% | 42% | active | best efficiency | 53% | 65% | 4190 nM
COc1cc(Nc2nc(C)cc(N3CCN(c4ccnc5ccccc45)CC3)n2)cc(OC)c1 [Compound A42, N-(3,5-dimethoxyphenyl)-4-methyl-6-(4-(quinolin-4-yl)piperazin-1-yl)pyrimidin-2-amine] | 4% | 67% | 4210 nM | 2350 nM | 20% | 80% | active | best efficiency | 68% | 98% | 1010 nM
COc1cc(Nc2nc(C)cc(N3CCN(c4ncnc5ccccc45)CC3)n2)cc(OC)c1 [Compound A46, N-(3,5-dimethoxyphenyl)-4-methyl-6-(4-(quinazolin-4-yl)piperazin-1-yl)pyrimidin-2-amine] | -2% | 44% | – | – | 2% | 66% | active | – | 25% | 98% | –
COc1cccc(Nc2nc(C)cc(N3CCN(c4ccnc5cc(Cl)ccc45)CC3)n2)c1 [Compound A4, 4-(4-(7-chloroquinolin-4-yl)piperazin-1-yl)-N-(3-methoxyphenyl)-6-methylpyrimidin-2-amine] | -4% | 71% | – | – | 14% | 57% | active | – | 47% | 95% | –
COc1cc(Nc2nc(C)cc(N3CCN(c4ccnc5cc(Cl)ccc45)CC3)n2)cc(C(F)(F)F)c1 [Compound A2, 4-(4-(7-chloroquinolin-4-yl)piperazin-1-yl)-N-(3-methoxy-5-(trifluoromethyl)phenyl)-6-methylpyrimidin-2-amine] | -8% | -3% | – | – | 4% | 14% | active | – | 9% | 1% | –
FC(F)(F)c1cc(N2CCN(c3ccnc4cc(Cl)ccc34)CC2)nc(N2CCCC2)n1 [Compound A19, 7-chloro-4-(4-(2-(pyrrolidin-1-yl)-6-(trifluoromethyl)pyrimidin-4-yl)piperazin-1-yl)quinoline] | -8% | 45% | – | – | 11% | 48% | active | – | 25% | 87% | –
COc1cc(Nc2nc(N3CCN(c4ccnc5cc(Cl)ccc45)CC3)cc(C(F)(F)F)n2)cc(C(F)(F)F)c1 [Compound A6, 4-(4-(7-chloroquinolin-4-yl)piperazin-1-yl)-N-(3-methoxy-5-(trifluoromethyl)phenyl)-6-(trifluoromethyl)pyrimidin-2-amine] | -7% | -1% | – | – | 7% | 21% | active | – | 15% | 4% | –
CN1CCN(c2nc(N3CCN(c4ccnc5cc(Cl)ccc45)CC3)cc(C(F)(F)F)n2)CC1 [Compound A23, 7-chloro-4-(4-(2-(4-methylpiperazin-1-yl)-6-(trifluoromethyl)pyrimidin-4-yl)piperazin-1-yl)quinoline] | -15% | -2% | – | – | 1% | 9% | active | – | 12% | 13% | –
Cc1cc(N2CCN(c3ccnc4cc(Cl)ccc34)CC2)nc(N2CCCCC2)n1 [Compound A12, 7-chloro-4-(4-(6-methyl-2-(piperidin-1-yl)pyrimidin-4-yl)piperazin-1-yl)quinoline] | -9% | 99% | – | – | 5% | 99% | active | – | 10% | 99% | –
Cc1cc(N2CCN(c3ccnc4cc(Cl)ccc34)CC2)nc(N2CCOCC2)n1 [Compound A16, 4-(4-(4-(7-chloroquinolin-4-yl)piperazin-1-yl)-6-methylpyrimidin-2-yl)morpholine] | -11% | -6% | – | – | 8% | 12% | active | – | 9% | -17% | –
FC(F)(F)c1cc(N2CCN(c3ccnc4cc(Cl)ccc34)CC2)nc(N2CCOCC2)n1 [Compound A24, 4-(4-(4-(7-chloroquinolin-4-yl)piperazin-1-yl)-6-(trifluoromethyl)pyrimidin-2-yl)morpholine] | -9% | -6% | – | – | 0% | 8% | active | – | -1% | 22% | –

Source: patent publication US20260070886A1, “QUINOLINE PIPERAZINE DERIVATIVES, PHARMACEUTICAL COMPOSITION AND USES THEREOF” (priority 2022, published 2026)
